Drawing on patent US20190077795A1, “ARGININE […] INHIBITORS AND USES THEREOF” (Epizyme, Inc., priority 2014, published 2019), this text covers IC50 for twelve molecules.

Details in all cases: peptide substrate, 3H-SAM Flashplate assay
In one assay the target is T1, human PRMT1 (Homo sapiens, UniProt Q99873).
T1 construct: GST-tagged PRMT1; made in house; host or cells: High Five insect cells (baculovirus, pFastBac1)
Description: PRMT1 Biochemical Assay. The text has this: S-adenosylmethionine (SAM), S-adenosylhomocysteine (SAH), bicine, Tween20, dimethylsulfoxide (DMSO), bovine skin gelatin (BSG), and Tris(2-carboxyethyl)phosphine hydrochloride solution (TCEP) were purchased from Sigma-Aldrich at the highest level of purity possible. ^3H-SAM was purchase from American Radiolabeled Chemicals with a specific activity of 80 Ci/mmol. 384-well streptavidin Flashplates were purchased from PerkinElmer.
Recombinant baculovirus were generated according to Bac-to-Bac kit instructions (Life Technologies). […] Infections were carried out at 27° C. for 48 hours, harvested by centrifugation, and stored at −80° C. for purification.
GST-tagged PRMT1 was eluted with 50 mM Tris, 2 mM glutathione, pH 7.8, dialysed in buffer A and concentrated to 1 mg/mL.
General Procedure for PRMT1 Enzyme Assays on Peptide Substrates.
(§1) The assays were all performed in a buffer consisting of 20 mM Bicine (pH=7.6), 1 mM TCEP, 0.005% BSG, and 0.002% Tween 20, prepared on the day of use. […] DMSO (1 ul) was added to Columns 11, 12, 23, 24, rows A-H for the maximum signal control and 1 ul of SAH, a known product and inhibitor of PRMT1, was added to columns 11, 12, 23, 24, rows I-P for the minimum signal control. A cocktail (40 ul) containing the PRMT1 enzyme was added by Multidrop Combi (Thermo-Fisher). The compounds were allowed to incubate with PRMT1 for 30 min at room temperature, then a cocktail (10 ul) containing SAM and peptide was added to initiate the reaction (final volume=51 ul). […] The assays were stopped by the addition of non-radiolabeled SAM (10 ul) to a final concentration of 300 uM, which dilutes the ^3H-SAM to a level where its incorporation into the peptide substrate is no longer detectable. 50 ul of the reaction in the 384-well polypropylene plate was then transferred to a 384-well Flashplate and the biotinylated peptides were allowed to bind to the streptavidin surface for at least 1 hour before being washed once with 0.1% Tween20 in a Biotek ELx405 plate washer. The plates were then read in a PerkinElmer TopCount plate reader to measure the quantity of ^3H-labeled peptide bound to the Flashplate surface, measured as disintegrations per minute (dpm) or alternatively, referred to as counts per minute (cpm).
(§2) Where dpm=disintegrations per minute, cmpd=signal in assay well, and min and max are the respective minimum and maximum signal controls.
(§3) Where top and bottom are the normally allowed to float, but may be fixed at 100 or 0 respectively in a 3-parameter fit. The Hill Coefficient normally allowed to float but may also be fixed at 1 in a 3-parameter fit. Y is the % inhibition and X is the compound concentration.

Another assay concerns the target T2, human PRMT6 (Homo sapiens, UniProt Q96LA8).
T2 construct: Flag-PRMT6-His; made in house; host or cells: HEK 293F cells (BacMam baculovirus, pFastBacMam)
As to the kind of experiment: PRMT6 Biochemical Assay.
Excerpt: S-adenosylmethionine (SAM), S-adenosylhomocysteine (SAH), bicine, Tween20, dimethylsulfoxide (DMSO), bovine skin gelatin (BSG), sodium butyrate and Tris(2-carboxyethyl)phosphine hydrochloride solution (TCEP) were purchased from Sigma-Aldrich at the highest level of purity possible. ^3H-SAM was purchase from American Radiolabeled Chemicals with a specific activity of 80 Ci/mmol. 384-well streptavidin Flashplates were purchased from PerkinElmer.
Peptide representative of human histone H4 residues 36-50 was synthesized with an N-terminal linker-affinity tag motif and a C-terminal amide cap by 21st Century Biochemicals.
The amplified gene was subcloned into pFastBacMam (Viva Biotech).
Recombinant baculovirus were generated according to Bac-to-Bac kit instructions (Life Technologies). […] Infections were carried out at 37° C. for 48 hours, harvested by centrifugation, and stored at −80° C. for purification.
Column was washed with 20 mM imidazole in the same buffer and Flag-PRMT6-His was eluted with 150 mM imidazole. Pooled fractions were dialysed against buffer Ni-A and further purified by anti-flag M2 affinity chromatography. Flag-PRMT6-His was eluted with 200 ug/ml FLAG peptide in the same buffer. Pooled fractions were dialysed in 20 mM Tris, 150 mM NaCl, 10% glycerol and 5 mM β-mercaptoethanol, pH 7.8.
General Procedure for PRMT6 Enzyme Assays on Peptide Substrates.
as §1, with “PRMT6,” for “PRMT1,”, “PRMT6” for “PRMT1”, “400” for “300”
as §2, §3

In the next assay the target is human PRMT8 (Homo sapiens, UniProt Q9NR22). Description: PRMT8 Biochemical Assay.

Like-named read-outs stand apart in the source and are kept apart here.

human PRMT8, sequence (Q9NR22 whole entry): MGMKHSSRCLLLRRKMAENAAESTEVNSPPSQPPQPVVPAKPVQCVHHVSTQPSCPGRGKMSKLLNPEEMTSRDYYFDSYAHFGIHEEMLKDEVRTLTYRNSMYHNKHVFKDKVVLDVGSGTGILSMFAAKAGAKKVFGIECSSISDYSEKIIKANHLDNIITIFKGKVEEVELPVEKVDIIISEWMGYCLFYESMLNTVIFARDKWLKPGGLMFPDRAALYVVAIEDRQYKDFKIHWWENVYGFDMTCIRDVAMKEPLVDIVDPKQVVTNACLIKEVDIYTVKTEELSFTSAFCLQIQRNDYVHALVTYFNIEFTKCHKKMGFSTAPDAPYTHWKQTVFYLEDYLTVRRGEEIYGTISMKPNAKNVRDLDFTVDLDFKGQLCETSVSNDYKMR
T2 sequence (Q96LA8 with tags, fused parts or gaps): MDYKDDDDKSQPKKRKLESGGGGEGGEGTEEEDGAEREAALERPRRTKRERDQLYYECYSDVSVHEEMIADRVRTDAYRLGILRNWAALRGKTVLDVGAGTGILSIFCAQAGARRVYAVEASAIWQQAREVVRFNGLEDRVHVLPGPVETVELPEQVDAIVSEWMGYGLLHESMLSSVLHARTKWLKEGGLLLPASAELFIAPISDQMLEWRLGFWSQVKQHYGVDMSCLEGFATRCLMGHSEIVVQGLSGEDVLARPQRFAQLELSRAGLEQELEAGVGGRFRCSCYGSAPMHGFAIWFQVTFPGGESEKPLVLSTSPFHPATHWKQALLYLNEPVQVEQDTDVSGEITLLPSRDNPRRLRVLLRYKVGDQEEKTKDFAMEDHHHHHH
T1 sequence (Q99873 with tags, fused parts or gaps): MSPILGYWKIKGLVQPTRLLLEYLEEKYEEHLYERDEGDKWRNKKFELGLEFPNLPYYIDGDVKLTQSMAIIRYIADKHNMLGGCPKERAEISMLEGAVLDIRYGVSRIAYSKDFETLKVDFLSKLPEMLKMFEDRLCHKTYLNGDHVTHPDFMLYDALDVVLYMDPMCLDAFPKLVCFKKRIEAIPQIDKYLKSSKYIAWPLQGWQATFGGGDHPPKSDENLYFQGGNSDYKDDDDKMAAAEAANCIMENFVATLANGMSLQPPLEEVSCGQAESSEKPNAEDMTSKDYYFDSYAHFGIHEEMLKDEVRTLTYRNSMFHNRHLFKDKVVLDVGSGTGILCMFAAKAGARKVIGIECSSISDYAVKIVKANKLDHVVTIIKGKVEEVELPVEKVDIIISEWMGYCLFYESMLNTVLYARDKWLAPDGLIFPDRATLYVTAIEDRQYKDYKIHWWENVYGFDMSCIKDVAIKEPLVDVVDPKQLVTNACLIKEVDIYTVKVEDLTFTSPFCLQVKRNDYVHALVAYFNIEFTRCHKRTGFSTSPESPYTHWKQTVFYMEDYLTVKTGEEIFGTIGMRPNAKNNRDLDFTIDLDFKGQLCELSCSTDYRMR

On to `CNCCN(C)Cc1c[nH]nc1-c1cc(OCCCC(C)C)cc(C(F)(F)F)c1` [Compound 13], for which the values for the IC50 at human PRMT1 (read-out: PRMT1 IC50), on human PRMT6 (read-out: PRMT6 IC50) and at human PRMT8 (PRMT8 IC50 (uM)) were 0.00531 µM, 0.285 µM and 0.0261 µM, respectively.

For the molecule `CNCCN(C)Cc1c[nH]nc1-c1ccc(CC(C)C)c(C(F)(F)F)c1` [Compound 50], the IC50 at human PRMT1 (PRMT1 IC50 (uM)) turned out to be 0.0105 µM; at human PRMT6 (read-out: PRMT6 IC50) it was 0.0677 µM; at human PRMT8 (PRMT8 IC50 (uM)), 0.0245 µM.

`CNCCN(C)Cc1c[nH]nc1-c1ccc(NC(C)c2cccnc2)nc1` (stereo not drawn) [Compound 52]: the IC50 on human PRMT1 (read-out: PRMT1 IC50) is 0.0107 µM; on human PRMT6 (read-out: PRMT6 IC50) it was 0.0206 µM; against human PRMT8 (PRMT8 IC50 (uM)), 0.026 µM.

`CNCCN(C)Cc1c[nH]nc1-c1ccc(OCCOc2ccc(OCCC3CCOCC3)cc2)cc1` [Compound 55]: the IC50 came to 0.0113 µM on human PRMT1 (read-out: PRMT1 IC50), 0.0186 µM at human PRMT6 (read-out: PRMT6 IC50) and 0.023 µM against human PRMT8 (PRMT8 IC50 (uM)).

Regarding `CNCCN(C)Cc1c[nH]nc1-c1ccc(NC(C)c2ccncc2)nc1` (stereo not drawn) [Compound 67], the values for the IC50 at human PRMT1 (read-out: PRMT1 IC50), on human PRMT6 (read-out: PRMT6 IC50) and at human PRMT8 (PRMT8 IC50 (uM)) were 0.0147 µM, 0.031 µM and 0.062 µM, respectively.

As to `CNCCN(C)Cc1c[nH]nc1-c1cc(OC2CCCC2)cc(C(F)(F)F)c1` [Compound 76], the IC50 on human PRMT1 (read-out: PRMT1 IC50) worked out at 0.0163 µM; at human PRMT6 (read-out: PRMT6 IC50) it was 0.254 µM; against human PRMT8 (PRMT8 IC50 (uM)) it was 0.0871 µM.

In the case of `CNCCN(C)Cc1c[nH]nc1-c1ccc(OC2CC(OCCC3CCCCC3)C2)cc1` (stereo not drawn) [Compound 100], the concentration for half-maximal inhibition (IC50) at human PRMT1 (read-out: PRMT1 IC50) is 0.03 µM; at human PRMT6 (read-out: PRMT6 IC50), 0.00465 µM; at human PRMT8 (PRMT8 IC50 (uM)), 0.0599 µM.

Turning to `CNCCN(C)Cc1c[nH]nc1-c1cc(F)c(OC(CO)CO)c(C(F)(F)F)c1` [Compound 107], the IC50 on human PRMT1 (read-out: PRMT1 IC50) worked out at 0.0355 µM; on human PRMT6 (read-out: PRMT6 IC50) it was 0.066 µM; against human PRMT8 (PRMT8 IC50 (uM)), 0.085 µM.

As for `CCN(Cc1ccncc1)c1ccc(-c2n[nH]cc2CN(C)CCNC)cn1` [Compound 113], the IC50 amounted to 0.0374 µM on human PRMT1 (read-out: PRMT1 IC50), 0.105 µM on human PRMT6 (read-out: PRMT6 IC50) and 0.243 µM at human PRMT8 (PRMT8 IC50 (uM)).

`COCCCOc1cc(-c2n[nH]cc2CN(C)CCN)cc(C(F)(F)F)c1Cl` [Compound 115]: the IC50 at human PRMT1 (read-out: PRMT1 IC50) stood at 0.0391 µM; on human PRMT6 (read-out: PRMT6 IC50), 1.82 µM; against human PRMT8 (PRMT8 IC50 (uM)) it was 0.563 µM.

For `CNCCN(C)Cc1cn[nH]c1-c1ccc(OC2CC(OCCC3CCOCC3)C2)cc1` (stereo not drawn) [Compound 145], the IC50 at human PRMT1 (read-out: PRMT1 IC50) worked out at 0.119 µM; against human PRMT6 (PRMT6 IC50 (uM)), 0.0101 µM; against human PRMT8 (PRMT8 IC50 (uM)) it was 0.223 µM.

`CNCCN(C)Cc1c[nH]nc1-c1ccc(O[C@H]2C[C@H](OCCC3CCOCC3)C2)cc1` [Compound 155, N1,N2-dimethyl-N1-((3-(4-(3-(2-(tetrahydro-2H-pyran-4-yl)ethoxy)cyclobutoxy)phenyl)-1H-pyrazol-4-yl)methyl)ethane-1,2-diamine bis(2,2,2-trifluoroacetate)]: the IC50 at human PRMT1 (read-out: PRMT1 IC50) stood at 0.119 µM; at human PRMT6 (read-out: PRMT6 IC50), 0.0101 µM; at human PRMT8 (read-out: PRMT8 IC50) it was 0.223 µM.
